Legend:
Assay type in all cases: cell-based
[1] = molecular target: T1, HuPCaR 5.2 (Homo sapiens, UniProt P41180, E1011Q/Q926R); test: [Ca2+]i (fura-2) in HEK293 cells transfected with HuPCaR 5.2
T1 construct: appear to be full-length clones corresponding to the 5 Kb mRNA; expressed in transfected cells; host or cells: HEK293 cells, hygromycin-selected pool, Cep4B vector with the HuPCaR 5.2 insert
T1 sequence (P41180 20-1088 isoform P41180-2 Q936R/E1021Q): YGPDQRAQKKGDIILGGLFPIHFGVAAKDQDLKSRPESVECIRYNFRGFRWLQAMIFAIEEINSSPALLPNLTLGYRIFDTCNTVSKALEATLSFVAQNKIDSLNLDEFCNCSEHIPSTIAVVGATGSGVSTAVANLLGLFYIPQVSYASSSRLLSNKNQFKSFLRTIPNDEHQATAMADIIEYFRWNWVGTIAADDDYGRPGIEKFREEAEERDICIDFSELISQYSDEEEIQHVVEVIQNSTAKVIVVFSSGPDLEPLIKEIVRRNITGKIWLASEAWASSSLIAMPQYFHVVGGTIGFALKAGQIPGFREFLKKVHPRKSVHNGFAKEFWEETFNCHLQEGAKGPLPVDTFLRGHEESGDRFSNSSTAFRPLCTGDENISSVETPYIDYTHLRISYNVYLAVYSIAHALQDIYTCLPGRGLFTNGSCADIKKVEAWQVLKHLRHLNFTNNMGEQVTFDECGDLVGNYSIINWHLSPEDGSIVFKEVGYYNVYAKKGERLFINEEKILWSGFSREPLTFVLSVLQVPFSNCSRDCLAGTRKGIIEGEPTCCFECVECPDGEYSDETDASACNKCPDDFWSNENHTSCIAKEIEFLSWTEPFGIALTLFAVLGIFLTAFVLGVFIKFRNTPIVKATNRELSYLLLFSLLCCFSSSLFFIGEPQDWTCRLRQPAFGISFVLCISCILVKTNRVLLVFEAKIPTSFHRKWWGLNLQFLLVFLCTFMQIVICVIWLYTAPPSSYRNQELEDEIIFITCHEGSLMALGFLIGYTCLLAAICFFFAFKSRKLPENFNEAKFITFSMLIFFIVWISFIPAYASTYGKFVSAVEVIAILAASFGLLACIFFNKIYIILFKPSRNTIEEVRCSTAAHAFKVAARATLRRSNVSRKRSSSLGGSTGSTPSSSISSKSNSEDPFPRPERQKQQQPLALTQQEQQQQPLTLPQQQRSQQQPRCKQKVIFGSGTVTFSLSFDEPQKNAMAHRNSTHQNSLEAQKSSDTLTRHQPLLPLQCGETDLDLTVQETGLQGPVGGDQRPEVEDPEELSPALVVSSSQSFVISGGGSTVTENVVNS
Experimental: Cells obtained from the pool of hygromycin selected HEK293 cells transfected with Cep4B containing the HuPCaR 5.2 insert were plated on collagen coated Aklar squares which had been placed into individual wells of 12-well tissue culture plates. Two to six days later, medium was removed and the cells washed with balanced salt solution and 1 ml of buffer containing 1 μM fura2-AM, 1 mM CaCl2 and 0.1% BSA and 1 mM CaCl2. Measurements of fluorescence in response to calcium receptor agonists were performed at 37° C. in a spectrofluorimeter using excitation and emission wavelengths of 340 and 510 nm, respectively. For signal calibration, Fmax was determined after addition of ionomycin (40 μM) and the apparent Fmin was determined by addition of 0.3 M EGTA, 2.5 M Tris-HCl; pH 10.

[2] = molecular target: T2, C-cell calcium receptor (Rattus norvegicus, UniProt P48442)
T2 construct: cultured cell lines expressing the C-cell phenotype (e.g., rat medullary thyroid carcinoma cells; rMTC 6-23 cells); host or cells: rMTC 6-23 rat medullary thyroid carcinoma cells
T2 sequence (P48442 20-1079): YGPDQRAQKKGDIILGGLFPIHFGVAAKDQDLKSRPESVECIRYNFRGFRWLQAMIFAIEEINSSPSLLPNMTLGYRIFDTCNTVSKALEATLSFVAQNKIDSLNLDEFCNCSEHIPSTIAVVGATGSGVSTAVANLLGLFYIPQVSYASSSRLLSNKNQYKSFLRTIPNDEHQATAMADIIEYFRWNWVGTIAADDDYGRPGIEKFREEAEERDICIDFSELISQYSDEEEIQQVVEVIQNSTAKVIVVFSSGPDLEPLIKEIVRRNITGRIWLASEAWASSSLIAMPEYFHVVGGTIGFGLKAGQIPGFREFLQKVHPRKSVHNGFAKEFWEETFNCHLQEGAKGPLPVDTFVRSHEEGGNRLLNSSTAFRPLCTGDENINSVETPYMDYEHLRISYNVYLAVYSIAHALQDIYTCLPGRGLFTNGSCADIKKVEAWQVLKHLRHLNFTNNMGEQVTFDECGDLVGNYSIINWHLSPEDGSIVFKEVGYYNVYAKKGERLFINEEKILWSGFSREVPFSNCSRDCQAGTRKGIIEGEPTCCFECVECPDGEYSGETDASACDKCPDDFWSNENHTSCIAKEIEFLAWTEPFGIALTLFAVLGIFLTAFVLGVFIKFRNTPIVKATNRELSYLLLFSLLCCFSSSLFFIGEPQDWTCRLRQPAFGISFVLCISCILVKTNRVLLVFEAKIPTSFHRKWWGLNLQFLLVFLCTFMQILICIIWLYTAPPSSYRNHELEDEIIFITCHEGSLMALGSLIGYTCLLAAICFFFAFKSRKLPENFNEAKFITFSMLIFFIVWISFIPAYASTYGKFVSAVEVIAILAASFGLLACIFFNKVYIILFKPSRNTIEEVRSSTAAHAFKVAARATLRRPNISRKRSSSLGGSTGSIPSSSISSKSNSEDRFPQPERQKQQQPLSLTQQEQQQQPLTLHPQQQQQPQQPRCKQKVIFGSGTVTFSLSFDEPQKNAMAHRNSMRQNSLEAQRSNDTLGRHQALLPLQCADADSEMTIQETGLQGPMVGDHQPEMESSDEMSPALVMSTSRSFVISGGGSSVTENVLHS

[3] = molecular target: T3, osteoclast calcium receptor (Rattus norvegicus, UniProt P48442); test: [Ca2+]i (indo-1) in single rat osteoclasts
T3 sequence (P48442 20-1079): T2 sequence (P48442 20-1079)

COc1cccc([C@@H](C)NCCCc2ccccc2)c1 (single isomer, unassigned) [NPS R-467]
intracellular calcium [1]: Robust increases in intracellular calcium

NC[C@@H]1O[C@H](O[C@H]2[C@@H](O)[C@H](O[C@@H]3[C@@H](O)[C@H](N)C[C@H](N)[C@H]3O[C@H]3O[C@H](CN)[C@@H](O)[C@H](O)[C@H]3N)O[C@@H]2CO)[C@H](N)[C@@H](O)[C@@H]1O [Neomycin B, neomycin B]
effect on basal [Ca2+]i [2]: without effect
EC50 C-CELL ([2]; Table 6, rMTC 6-23 cells): inactive
compounds that caused any large increase in [Ca2+]i [3]: none
effect on response to subsequent extracellular Ca2+ [3]: did not block the increase
increase in [Ca2+]i [3]: failed to evoke any increase
EC50 OSTEOCLAST ([3]; Table 6, rat osteoclasts, indo-1): inactive

— patent publication US20130190407A1, “CALCIUM RECEPTOR-ACTIVE MOLECULES” (NPS Pharmaceuticals, Inc., priority 1991, published 2013)
